In patent US8883963B2 (Cadila Healthcare Limited, priority 2007, dated 2014):

Key:
[1] = Stability in simulated intestinal fluid; type: in vitro ADME; conditions: 2 μM peptidomimetic, simulated intestinal fluid pH 7.5, 37° C.
Procedure: (§1) Reactions were terminated by the addition of TFA/H2O (15 mL, 10% (v/v)). […] The column was equilibrated with TFA/H20, at a flow rate of 1 mL/min.

[2] = molecular target: DPP IV (Homo sapiens, UniProt P27487); experiment: Stability against DPP IV enzyme; type: in vitro ADME; conditions: 37° C.; for % degradation of peptidomimetics in 24 h when incubated with DPP-IV enzyme: 2 μM peptidomimetic; for half-life at 2 μM: DPP IV enzyme, pH 7.8, 2 μM peptidomimetic, read-out: half-life (t1/2) when incubated with DPP-IV enzyme
Procedure: as §1

[3] = Stability in liver microsomes; type: in vitro ADME; conditions: 2 μM peptidomimetic, human liver microsomes, 37° C.
Procedure: as §1

[4] = Stability in simulated gastric fluid; type: in vitro ADME; conditions: 2 μM peptidomimetic, simulated gastric fluid pH 1.5, 37° C.
Procedure: as §1

[5] = molecular target: T1, Human GLP-1 receptor (Homo sapiens, UniProt P43220); experiment: In vitro Human GLP-1 R agonist activity (cyclic AMP determination) in CHO/human GLP1R cells; type: cell-based
T1 construct: The full-length cDNA was cloned in pcDNA3.1(+); expressed in transfected cells

[6] = Stability in human plasma; type: in vitro ADME; conditions: 2 μM peptidomimetic, pooled human plasma, 37° C.; for half-life at 2 μM: pH 7.8, read-out: half-life (t1/2) when incubated with human plasma
Procedure: as §1

[7] = molecular target: T2, human glucagon receptor (Homo sapiens, UniProt P47871); experiment: In vitro human glucagon antagonist activity (inhibition of cAMP production) in CHO/human glucagon R cells; type: cell-based; conditions: with saturated concentration of glucagon peptide
T2 construct: The full-length cDNA was cloned in pcDNA3.1 (Invitrogen); expressed in transfected cells
T2 sequence (P47871 26-477): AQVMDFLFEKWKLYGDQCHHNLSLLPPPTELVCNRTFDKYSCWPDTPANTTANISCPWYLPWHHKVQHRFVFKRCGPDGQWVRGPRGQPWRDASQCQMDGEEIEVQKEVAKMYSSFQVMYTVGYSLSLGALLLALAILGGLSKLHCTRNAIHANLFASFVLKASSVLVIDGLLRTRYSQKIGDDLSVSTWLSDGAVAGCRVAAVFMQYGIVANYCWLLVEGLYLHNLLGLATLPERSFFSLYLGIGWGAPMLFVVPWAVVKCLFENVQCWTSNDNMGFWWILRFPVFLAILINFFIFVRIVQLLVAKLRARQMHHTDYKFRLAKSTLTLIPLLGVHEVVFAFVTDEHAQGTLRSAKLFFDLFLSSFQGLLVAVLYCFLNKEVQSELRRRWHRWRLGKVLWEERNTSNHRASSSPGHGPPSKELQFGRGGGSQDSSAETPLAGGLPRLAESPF

T1 sequence (P43220 24-463): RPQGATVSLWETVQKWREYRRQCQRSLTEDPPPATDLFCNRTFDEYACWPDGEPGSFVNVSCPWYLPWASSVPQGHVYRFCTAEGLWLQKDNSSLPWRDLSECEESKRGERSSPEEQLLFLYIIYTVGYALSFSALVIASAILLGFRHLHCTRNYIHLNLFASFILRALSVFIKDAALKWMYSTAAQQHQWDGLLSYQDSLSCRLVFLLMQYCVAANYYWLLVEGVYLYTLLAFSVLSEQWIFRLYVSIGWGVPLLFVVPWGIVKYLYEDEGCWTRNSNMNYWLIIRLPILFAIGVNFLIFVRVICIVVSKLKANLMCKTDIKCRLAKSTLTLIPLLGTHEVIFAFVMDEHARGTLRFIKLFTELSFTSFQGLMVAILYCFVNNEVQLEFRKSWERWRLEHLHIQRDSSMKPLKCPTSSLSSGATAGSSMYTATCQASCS
Chain of DPP IV (P27487 whole entry, species assumed): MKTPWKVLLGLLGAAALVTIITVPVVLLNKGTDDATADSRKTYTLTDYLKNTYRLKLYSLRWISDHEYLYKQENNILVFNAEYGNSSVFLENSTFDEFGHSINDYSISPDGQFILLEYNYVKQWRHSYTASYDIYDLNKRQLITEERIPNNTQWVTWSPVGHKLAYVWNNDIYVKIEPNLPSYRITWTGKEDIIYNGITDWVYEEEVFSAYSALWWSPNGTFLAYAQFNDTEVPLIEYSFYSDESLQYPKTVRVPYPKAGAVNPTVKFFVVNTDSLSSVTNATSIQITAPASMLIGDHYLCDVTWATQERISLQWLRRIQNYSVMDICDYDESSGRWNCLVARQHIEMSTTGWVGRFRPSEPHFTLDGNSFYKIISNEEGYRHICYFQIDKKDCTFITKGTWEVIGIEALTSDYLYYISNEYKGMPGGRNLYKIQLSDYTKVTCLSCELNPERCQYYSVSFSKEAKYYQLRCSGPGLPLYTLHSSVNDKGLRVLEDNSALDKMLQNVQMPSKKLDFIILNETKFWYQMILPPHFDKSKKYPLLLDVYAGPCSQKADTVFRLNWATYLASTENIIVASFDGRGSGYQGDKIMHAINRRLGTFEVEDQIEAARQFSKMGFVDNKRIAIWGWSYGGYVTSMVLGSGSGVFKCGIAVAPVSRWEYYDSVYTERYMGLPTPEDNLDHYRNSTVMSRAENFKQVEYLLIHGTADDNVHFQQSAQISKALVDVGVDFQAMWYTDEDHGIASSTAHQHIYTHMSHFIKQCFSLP

Compound | % degradation of peptidomimetics in 24 h when incubated with simulated intestinal fluid [1] [%] | % degradation of peptidomimetics in 24 h when incubated with DPP-IV enzyme [2] [%] | half-life at 2 μM [2] [h] | % degradation of peptidomimetics in 24 h when incubated with liver microsomes [3] [%] | % degradation of peptidomimetics in 24 h when incubated with simulated gastric fluid [4] [%] | Human GLP-1 R activity (cAMP release), % activity with respect to control ([5]; 1 nM test compound) [%] | Human GLP-1 R activity (cAMP release), % activity with respect to control ([5]; 10 nM test compound) [%] | Human GLP-1 R activity (cAMP release), % activity with respect to control ([5]; 100 nM test compound) [%] | Human GLP-1 R activity (cAMP release), % activity with respect to control ([5]; 1 μM test compound) [%] | Human GLP-1 R activity (cAMP release), % activity with respect to control ([5]; 10 μM test compound) [%] | % degradation of peptidomimetics in 24 h when incubated with human plasma [6] [%] | half-life at 2 μM [6] [h] | Human Glucagon receptor antagonistic activity shown as inhibition of cAMP production of Glucagon peptide ([7]; 1 nM test compound) [pmol/ml/μg prt] | Human Glucagon receptor antagonistic activity shown as inhibition of cAMP production of Glucagon peptide ([7]; 10 nM test compound) [pmol/ml/μg prt] | Human Glucagon receptor antagonistic activity shown as inhibition of cAMP production of Glucagon peptide ([7]; 100 nM test compound) [pmol/ml/μg prt] | Human Glucagon receptor antagonistic activity shown as inhibition of cAMP production of Glucagon peptide ([7]; 1 μM test compound) [pmol/ml/μg prt] | Human Glucagon receptor antagonistic activity shown as inhibition of cAMP production of Glucagon peptide ([7]; 10 μM test compound) [pmol/ml/μg prt] | also measured
CCc1cc(OC)ccc1-c1ccc(CC(NC(=O)[C@H](CC(=O)O)NC(=O)[C@H](CO)NC(=O)[C@@H](NC(=O)[C@H](Cc2ccccc2)NC(=O)[C@@H](NC(=O)CNC(=O)[C@H](CCC(N)=O)NC(=O)C(C)(C)NC(=O)[C@@H](N)Cc2c[nH]cn2)[C@@H](C)O)[C@@H](C)O)C(=O)NC(CCCc2cccc(Cl)c2)C(N)=O)cc1 (single isomer, unassigned) [compound 19] | 41 | 86 | 9 | 77 | 15 | 99 ± 0.12 | 99 ± 0.08 | 99 ± 0.11 | 99 ± 0.12 | 99 ± 0.16 | 70 | 8 | 0 | 0 | 0 | 0 | 0 | half-life (t1/2) when incubated with simulated intestinal fluid [1]: (6) h; half-life at 2 μM ([3]; pH 7.8, read-out: half-life (t1/2) when incubated with liver microsomes): 1 h; half-life (t1/2) when incubated with simulated gastric fluid [4]: (8) h
CCc1cc(OC)ccc1-c1ccc(CC(NC(=O)[C@H](CC(=O)O)NC(=O)[C@H](CO)NC(=O)[C@@H](NC(=O)C(C)(Cc2ccccc2F)NC(=O)[C@@H](NC(=O)CNC(=O)C(CCC#N)NC(=O)C(C)(C)NC(=O)[C@H](Cc2c[nH]cn2)NC(C)=O)[C@@H](C)O)[C@@H](C)O)C(=O)NC(CCCc2ccccc2F)C(N)=O)cc1 (single isomer, unassigned) [compound 207] | 00 | 00 | > 24 | 26 | 00 | 40 ± 0.11 | 81 ± 0.09 | 89 ± 0.06 | 96 ± 0.14 | 99 ± 0.19 | 00 | > 24 | 0 | 0 | 0 | 0 | 0 | half-life at 2 μM ([1]; read-out: half-life (t1/2) when incubated with simulated intestinal fluid): > 24 h; half-life (t1/2) when incubated with liver microsomes [3]: (5) h; half-life at 2 μM ([4]; read-out: half-life (t1/2) when incubated with simulated gastric fluid): > 24 h
